“And” between values parts separate entries of the source, which are not always exact repeats. Equal values may be shown once. Inconclusive results and toxic doses are left out. How the source made its calls: active means survival T/C of 150% or more; inactive means T/C below 125% in these data.
System: CD2F1 mice, L1210 leukemia ip, survival T/C
Experiment: NCI In Vivo Anticancer Drug Screen. Data for tumor model L1210 Leukemia (intraperitoneal) in CD2F1 (CDF1) mice
Settings: higher = longer survival
In short: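 Activity against a transplanted murine tumor was judged by comparing the compound group with a vehicle group. The outcome in the treated animals was divided by that in the controls.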

[1] = endpoint: mean survival time, dose: 100.0 mg/kg/injection, schedule: Q01DX009 (ip), vehicle: saline with Tween-80
[2] = endpoint: mean survival time, dose: 100.0 mg/kg/injection, schedule: Q04DX003 (ip), vehicle: saline with Tween-80
[3] = endpoint: mean survival time, dose: 200.0 mg/kg/injection, schedule: Q01DX009 (ip), vehicle: saline with Tween-80
[4] = endpoint: mean survival time, dose: 200.0 mg/kg/injection, schedule: Q04DX003 (ip), vehicle: saline with Tween-80
[5] = endpoint: mean survival time, dose: 400.0 mg/kg/injection, schedule: Q01DX009 (ip), vehicle: saline with Tween-80
[6] = endpoint: mean survival time, dose: 50.0 mg/kg/injection, schedule: Q01DX009 (ip), vehicle: saline with Tween-80
[7] = endpoint: mean survival time, dose: 100.0 mg/kg/injection, schedule: Q01DX001 (ip), vehicle: saline with Tween-80
[8] = endpoint: mean survival time, dose: 200.0 mg/kg/injection, schedule: Q01DX001 (ip), vehicle: saline with Tween-80
[9] = endpoint: mean survival time, dose: 400.0 mg/kg/injection, schedule: Q01DX001 (ip), vehicle: saline with Tween-80
[10] = endpoint: mean survival time, dose: 100.0 mg/kg/injection, schedule: Q01DX009 (ip), vehicle: saline
[11] = endpoint: mean survival time, dose: 200.0 mg/kg/injection, schedule: Q01DX009 (ip), vehicle: saline
[12] = endpoint: mean survival time, dose: 400.0 mg/kg/injection, schedule: Q01DX009 (ip), vehicle: saline
[13] = endpoint: mean survival time, dose: 100.0 mg/kg/injection, schedule: Q04DX002 (ip), vehicle: saline with Tween-80
[14] = endpoint: mean survival time, dose: 50.0 mg/kg/injection, schedule: Q01DX009 (ip), vehicle: Klucel (hydroxypropylcellulose) (HPC)
[15] = endpoint: mean survival time, dose: 12.5 mg/kg/injection, schedule: Q01DX009 (ip), vehicle: saline with Tween-80
[16] = endpoint: mean survival time, dose: 200.0 mg/kg/injection, schedule: Q04DX002 (ip), vehicle: saline with Tween-80
[17] = endpoint: mean survival time, dose: 75.0 mg/kg/injection, schedule: Q01DX001 (ip), vehicle: saline

Measured: T/C

CCOC(=O)/C(=C\c1ccccc1Cl)C(C)=O
inactive: endpoint: mean survival time, dose: 25.0 mg/kg/injection, schedule: Q04DX003 (ip), vehicle: saline with Tween-80 103 % of control | endpoint: mean survival time, dose: 50.0 mg/kg/injection, schedule: Q04DX003 (ip), vehicle: saline with Tween-80 96 % of control | [1] 103 % of control | [2] 96 % of control | [3] 108 % of control | [4] 107 % of control | [5] 87 % of control

O=C(Nc1ccc([N+](=O)[O-])cc1Cl)OCCc1ccccn1
inactive: [6] 90 % of control | [7] 98 % of control | [2] 93 % of control | [8] 95 % of control | [4] 95 % of control | [9] 93 % of control | endpoint: mean survival time, dose: 400.0 mg/kg/injection, schedule: Q04DX003 (ip), vehicle: saline with Tween-80 90 % of control

NC(=O)NOCc1ccc([N+](=O)[O-])cc1
inactive: [10] 97 % of control | [11] 96 % of control | [12] 95 % of control

CCc1cccc(CC)c1NC(N)=S
inactive: endpoint: mean survival time, dose: 25.0 mg/kg/injection, schedule: Q04DX002 (ip), vehicle: saline with Tween-80 108 % of control | endpoint: mean survival time, dose: 50.0 mg/kg/injection, schedule: Q04DX002 (ip), vehicle: saline with Tween-80 97 % of control | [13] 101 % of control

Nc1nc(N)c(CCCc2ccccc2)c(N)n1
inactive: endpoint: mean survival time, dose: 2.0 mg/kg/injection, schedule: Q04DX002 (ip), vehicle: Klucel (hydroxypropylcellulose) (HPC) 104 % of control | endpoint: mean survival time, dose: 4.0 mg/kg/injection, schedule: Q04DX002 (ip), vehicle: Klucel (hydroxypropylcellulose) (HPC) 101 % of control | endpoint: mean survival time, dose: 8.0 mg/kg/injection, schedule: Q04DX002 (ip), vehicle: Klucel (hydroxypropylcellulose) (HPC) 109 % of control | endpoint: mean survival time, dose: 16.0 mg/kg/injection, schedule: Q04DX002 (ip), vehicle: Klucel (hydroxypropylcellulose) (HPC) 98 % of control | endpoint: mean survival time, dose: 32.0 mg/kg/injection, schedule: Q04DX002 (ip), vehicle: Klucel (hydroxypropylcellulose) (HPC) 98 % of control | endpoint: mean survival time, dose: 64.0 mg/kg/injection, schedule: Q04DX002 (ip), vehicle: Klucel (hydroxypropylcellulose) (HPC) 98 % of control

CCOC(=O)c1ncc(Cl)cc1N
inactive: [14] 97 % of control

O=C1/C(=C\c2ccccc2)Oc2cc(O)c(O)cc21
inactive: endpoint: mean survival time, dose: 25.0 mg/kg/injection, schedule: Q01DX001 (ip), vehicle: saline with Tween-80 100 % of control | endpoint: mean survival time, dose: 50.0 mg/kg/injection, schedule: Q01DX001 (ip), vehicle: saline with Tween-80 104 % of control | [7] 100 % of control

Cc1cc(N(CCOS(C)(=O)=O)CCOS(C)(=O)=O)ccc1C=Nc1ccc(C(=O)O)c(O)c1
inactive: endpoint: mean survival time, dose: 4.0 mg/kg/injection, schedule: Q01DX009 (ip), vehicle: saline with Tween-80 118 % of control | endpoint: mean survival time, dose: 6.0 mg/kg/injection, schedule: Q01DX009 (ip), vehicle: saline with Tween-80 111 % of control | [15] 123 % of control

Cc1c(N=O)c(C)[n+]([O-])n1O
inactive: [14] 89 % of control | endpoint: mean survival time, dose: 100.0 mg/kg/injection, schedule: Q01DX009 (ip), vehicle: Klucel (hydroxypropylcellulose) (HPC) 97 % of control | endpoint: mean survival time, dose: 200.0 mg/kg/injection, schedule: Q01DX009 (ip), vehicle: Klucel (hydroxypropylcellulose) (HPC) 97 % of control

COC(=O)C(CCl)NC(C)=O (stereo not drawn)
inactive: [1] 96 % of control and 101 % of control | [3] 96 % of control and 102 % of control | [5] 108 % of control and 98 % of control

NCCNc1ccccc1C(=O)O
inactive: endpoint: median survival time, dose: 50.0 mg/kg/injection, schedule: Q04DX002 (ip), vehicle: saline with Tween-80 111 % of control | endpoint: median survival time, dose: 100.0 mg/kg/injection, schedule: Q04DX002 (ip), vehicle: saline with Tween-80 100 % of control | endpoint: median survival time, dose: 200.0 mg/kg/injection, schedule: Q04DX002 (ip), vehicle: saline with Tween-80 100 % of control | endpoint: median survival time, dose: 400.0 mg/kg/injection, schedule: Q04DX002 (ip), vehicle: saline with Tween-80 111 % of control

CC(=O)CC(=O)N(C)Cc1ccccc1
inactive: [7] 101 % of control | [8] 104 % of control | [9] 107 % of control

COc1cc2c(cc1OC)C1=NN(c3ccccc3)C(=O)C1CC2 (stereo not drawn)
inactive: [13] 103 % of control | [16] 95 % of control | endpoint: mean survival time, dose: 400.0 mg/kg/injection, schedule: Q04DX002 (ip), vehicle: saline with Tween-80 95 % of control

O/N=C/c1ccccn1
inactive: endpoint: mean survival time, dose: 75.0 mg/kg/injection, schedule: Q04DX003 (ip), vehicle: saline with Tween-80 96 % of control | endpoint: mean survival time, dose: 150.0 mg/kg/injection, schedule: Q04DX003 (ip), vehicle: saline with Tween-80 104 % of control | endpoint: mean survival time, dose: 300.0 mg/kg/injection, schedule: Q04DX003 (ip), vehicle: saline with Tween-80 98 % of control

COc1ccc(S(=O)(=O)N=N/C=C2\C=CC=CN2O)cc1OC
inactive: endpoint: median survival time, dose: 3.12 mg/kg/injection, schedule: Q01DX009 (ip), vehicle: saline with Tween-80 101 % of control | endpoint: median survival time, dose: 6.25 mg/kg/injection, schedule: Q01DX009 (ip), vehicle: saline with Tween-80 107 % of control | endpoint: median survival time, dose: 12.5 mg/kg/injection, schedule: Q01DX009 (ip), vehicle: saline with Tween-80 104 % of control | endpoint: median survival time, dose: 18.0 mg/kg/injection, schedule: Q01DX009 (ip), vehicle: saline with Tween-80 103 % of control | endpoint: median survival time, dose: 37.0 mg/kg/injection, schedule: Q01DX009 (ip), vehicle: saline with Tween-80 105 % of control | endpoint: median survival time, dose: 100.0 mg/kg/injection, schedule: Q01DX009 (ip), vehicle: saline with Tween-80 113 % of control | endpoint: median survival time, dose: 150.0 mg/kg/injection, schedule: Q01DX009 (ip), vehicle: saline with Tween-80 98 % of control | endpoint: median survival time, dose: 200.0 mg/kg/injection, schedule: Q01DX009 (ip), vehicle: saline with Tween-80 95 % of control

CCOC(=O)CC(=O)c1c(C)cc(C)cc1C
inactive: [1] 89 % of control | [3] 96 % of control | [5] 107 % of control

CSCCC(C)(C)C
inactive: [17] 103 % of control

Cc1ccn(C)c(=O)c1
inactive: [10] 103 % of control | [11] 104 % of control | [12] 101 % of control

O=C1NC(=O)C2CC(Br)C(Br)CC12 (stereo not drawn)
inactive: endpoint: mean survival time, dose: 5.0 mg/kg/injection, schedule: Q01DX001 (ip), vehicle: saline 103 % of control | endpoint: mean survival time, dose: 10.0 mg/kg/injection, schedule: Q01DX001 (ip), vehicle: saline 101 % of control | endpoint: mean survival time, dose: 20.0 mg/kg/injection, schedule: Q01DX001 (ip), vehicle: saline 100 % of control

COc1ccc(OC)c(NC(=O)OCC(F)(F)F)c1
inactive: [6] 97 % of control | [3] 103 % of control

CC(=O)OC1CS(=O)(=O)CC1Br (stereo not drawn)
inactive: [7] 103 % of control | [8] 98 % of control | [9] 98 % of control

ClC1(Cl)C2CCCCCCC21 (stereo not drawn)
inactive: endpoint: mean survival time, dose: 100.0 mg/kg/injection, schedule: Q01DX001 (ip), vehicle: saline sonified 95 % of control | endpoint: mean survival time, dose: 100.0 mg/kg/injection, schedule: Q01DX009 (ip), vehicle: saline sonified 103 % of control | [13] 91 % of control | endpoint: mean survival time, dose: 200.0 mg/kg/injection, schedule: Q01DX001 (ip), vehicle: saline sonified 105 % of control | endpoint: mean survival time, dose: 200.0 mg/kg/injection, schedule: Q01DX009 (ip), vehicle: saline sonified 101 % of control | [16] 95 % of control | endpoint: mean survival time, dose: 400.0 mg/kg/injection, schedule: Q01DX001 (ip), vehicle: saline sonified 100 % of control | endpoint: mean survival time, dose: 400.0 mg/kg/injection, schedule: Q01DX009 (ip), vehicle: saline sonified 103 % of control

CCCCCCCCCC(=O)N(C)C
inactive: [17] 98 % of control | endpoint: mean survival time, dose: 150.0 mg/kg/injection, schedule: Q01DX001 (ip), vehicle: saline 104 % of control

c1ccc(C[P+](c2ccccc2)(c2ccccc2)c2ccccc2)cc1
inactive: endpoint: mean survival time, dose: 0.63 mg/kg/injection, schedule: Q01DX009 (ip), vehicle: saline with Tween-80 89 % of control | endpoint: mean survival time, dose: 1.25 mg/kg/injection, schedule: Q01DX009 (ip), vehicle: saline with Tween-80 100 % of control | endpoint: mean survival time, dose: 2.5 mg/kg/injection, schedule: Q01DX009 (ip), vehicle: saline with Tween-80 93 % of control

C[CH2][Sn]1([CH2]C)[O]OC(c2ccccc2)[O]1 (stereo not drawn)
inactive: endpoint: mean survival time, dose: 0.78 mg/kg/injection, schedule: Q01DX009 (ip), vehicle: saline with Tween-80 106 % of control | endpoint: mean survival time, dose: 1.56 mg/kg/injection, schedule: Q01DX009 (ip), vehicle: saline with Tween-80 96 % of control | endpoint: mean survival time, dose: 3.12 mg/kg/injection, schedule: Q01DX009 (ip), vehicle: saline with Tween-80 98 % of control | endpoint: mean survival time, dose: 6.25 mg/kg/injection, schedule: Q01DX009 (ip), vehicle: saline with Tween-80 106 % of control | [15] 112 % of control
